Source: patent US7803364B2, “Multipotent neural stem cells” (The Cleveland Clinic Foundation, priority 2005, dated 2010)

What was measured:
[1] = test system: βT4 secondary neurospheres; assay: Secondary βT4 neurosphere differentiation into TuJ1-positive neurons and O4-positive oligodendrocytes; assay type: cell-based, rat; conditions: PDGF-A alone or in combination with SHH
From the text: With this assay, we will determine whether growth factors or secreted products from activated immune cells affect βT4 neurosphere behavior. Using standard neurosphere medium and N2 only medium as positive and negative controls for cell growth, we tested the effects of two concentrations of sonic hedgehog on oligodendrocyte and neuron production.
If βT4 cells represent a CNS stem cell, growth factors should induce βT4 cell division and regulate the production of mature CNS cells. […]
Undissociated secondary neurospheres were plated onto PLL-coated coverslips and analyzed at either 24 hours or 7 days in vitro with DMEM/F12, Glutamax and Penicillin-Streptomycin (1%, Cellgro) with different supplements as follows: N2 (1%); N2 (1%) plus sonic hedgehog (SHH, 1000 ng/ml, R&D, Minneapolis, Minn.); “neurosphere medium” (N2 (1%), EGF (20 ng/ml), FGF2, 20 ng/ml).
βT4 positive cell percentage in control and Ara-C-treated cultures were quantified by counting 10 randomly selected fields using standard fluorescence microscopy and a 20× objective. βT4 positive primary neurosphere and secondary neurosphere percentage were quantified by counting 10 randomly selected fields using a 10× objective. […]

[2] = test system: βT4 cells in neurospheres from P4 rat brain lateral ventricle; assay: Ara-C enrichment of βT4 cells in neurosphere cultures; assay type: cell-based
From the text: We developed in vitro methods to study and enrich for βT4 cells. We harvested the lateral and medial wall of the lateral ventricles from P4 rat brain. As shown schematically in FIG. 12A, the tissue was dissociated into single cells and placed in neurosphere assay medium. Four days later, we attached the neurospheres to coverslips and stained for βT4. […] In an attempt to purify or enrich for βT4 cells, we treated P4 neurospheres (on coverslips) with cytosine-β-D-arabinofuranoside (Ara-C; for 4 days), which kills actively dividing cells. We dissociated the remaining cells and placed them in neurosphere-forming conditions for 4 days, plated the resulting neurospheres on coverslips and stained them for βIV tubulin.
The “dissociated” cultures had growth properties similar to the plated primary neurospheres.
Primary neurospheres, generated as described above, were dissociated with trypsin and trituration and then plated onto poly-L-lysine-coated (P-1274, Sigma) coverslips (10^5 cells/12 mm coverslip). The coverslips were incubated in neurosphere medium with cytoarabinoside-C (Ara-C, 10 μM, Sigma) for 4 days. Cells were detached from the coverslips by incubation on ice. […] The neurospheres resulting from these procedures are defined as secondary neurospheres and were analyzed by immunocytochemistry as described above or induced to differentiate.

PDGF-A: platelet-derived growth factor added alone or with SHH
effect on differentiation of secondary neurospheres [1]: had not effect on differentiation

cytosine-β-D-arabinofuranoside [Ara-C]
enrichment in βT4 cells ([2]; Ara-C 4 days versus culture without Ara-C (0.03%)): 2700 fold
percent of cells in secondary neurospheres βT4-positive ([2]; secondary neurospheres made from Ara-C-resistant primary neurospheres): > 83%
